# Test results from paper PMC9019904, “AD Informer Set: Chemical tools to facilitate Alzheimer's disease drug discovery” (Alzheimer's & Dementia : Translational Research & Clinical …, 2022).
# Where two headings read alike, the source gives them in different places.
# Columns and labels:
# [1] = system: BV2 (mouse microglia) cell line; test: pHrodo-myelin phagocytosis/cell viability high content imaging assay: phagocytosis signal; format: cell-based
# How it was run: (§1)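 HCI read-out ~22 h post pHrodo-myelin; phagocytosis + viability simultaneously; 3 parameters extracted; intensity up = early apoptosis, down = later apoptosis.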
# [2] = system: protein product expressed by the gene target; settings: cited from earlier work
# cellular system = settings: cited from earlier work
# [3] = Kinetic solubility in aqueous buffer pH 7.4 by total chemiluminescent nitrogen determination (Analiza); settings: aqueous buffer, pH 7.4, aqueous buffer, kinetic from dmso stock
# [4] = system: BV2 (mouse microglia) cell line; test: pHrodo-myelin phagocytosis/cell viability high content imaging assay: viability (cell count, nuclear area, nuclear intensity); settings: for 1. Cell count (% control) / 2. Nuclear Area (% Control) / 3. Nuclear DNA Intensity (% control): 48 hours treatment
# How it was run: (§2)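 Immortalized microglia are treated with compound (10 μM, single concentration) for 48 h, the final 20 h alongside pHrodo-myelin. Data are the mean of duplicates, reported as % of untreated control.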
# [5] = system: HMC3 (human microglia) cell line; test: as above; settings: for 1. Cell count (% control) / 2. Nuclear Area (% Control) / 3. Nuclear DNA Intensity (% control): 48 hours treatment
# How it was run: as §2
# [6] = system: HMC3 (human microglia) cell line; test: pHrodo-myelin phagocytosis/cell viability high content imaging assay: phagocytosis signal; format: cell-based
# How it was run: as §1
# [7] = gene target APP, ref PubMed 22323718
smiles,measurement,setting,value
CC(=O)N1CCN(c2ccc(OCC3COC(Cn4ccnc4)(c4ccc(Cl)cc4Cl)O3)cc2)CC1 (centres unmarked) [Ketoconazole],Stimulation of mouse microglial phagocytosis at 10 μM (>150% control),"[1]; BV2, 10 μM",Y (The compound was found to stimulate phagocytosis (response threshold: >150% control) when murine immortalized microglial cells were dosed at 10 μM (Y: yes))
same,Reported on-target biochemical potency,[2],64000 nM
same,Reported as cell active (<10 μM),cellular system,Y (key: Published data supports that the compound is active in a cellular system when dosed at 10 μM (Y/N); Published data supports that the compound is active in a cellular system when dosed at 10 μM (Y/N))
same,solubility kinetic,[3],120 µM
CN(C)c1ccc2c(c1)Sc1cc(N(C)C)ccc1N2.CS(=O)(=O)O.CS(=O)(=O)O [TRx0237 (LMTX) mesylate],Mouse microglial cytotoxicity at 10 μM (<70% control),"[4]; 10 μM, BV2",Y (The compound was found to be cytotoxic (cell count threshold: <70% control) when murine immortalized microglial cells were dosed at 10 μM (Y: yes))
same,Human microglial cytotoxicity at 10 μM (<70% control),"[5]; 10 μM, HMC3",Y (The compound was found to be cytotoxic (cell count threshold: <70% control) when human immortalized microglial cells were dosed at 10 μM (Y: yes))
same,Inhibition of human microglial phagocytosis at 10 μM (<70% control),"[6]; 10 μM, HMC3",Y (The compound was found to inhibit phagocytosis (response threshold: <70% control) when human immortalized microglial cells were dosed at 10 μM (Y: yes))
same,Reported on-target biochemical potency,"[2]; target gene MAPT, ref PubMed 26809554",160 nM
same,solubility kinetic,[3],115 µM
CC(C)[C@H](O)C(=O)N[C@@H](C)C(=O)N[C@@H]1C(=O)N(C)CCc2ccccc21 [Semagacestat (LY450139)],Stimulation of mouse microglial phagocytosis at 10 μM (>150% control),"[1]; BV2, 10 μM",Y (The compound was found to stimulate phagocytosis (response threshold: >150% control) when murine immortalized microglial cells were dosed at 10 μM (Y: yes))
same,Reported on-target biochemical potency (nM): Aβ38,[2]; [7],12 nM
same,Reported on-target biochemical potency (nM): Aβ40,[2]; [7],12.1 nM
same,Reported on-target biochemical potency (nM): Aβ42,[2]; [7],10.9 nM
same,solubility kinetic,[3],176 µM
Cc1ccc(NC(=O)c2ccc(CN3CCN(C)CC3)cc2)cc1Nc1nc(-c2cccnc2)cs1 [Masitinib (AB1010)],Mouse microglial cytotoxicity at 10 μM (<70% control),"[4]; 10 μM, BV2",Y (The compound was found to be cytotoxic (cell count threshold: <70% control) when murine immortalized microglial cells were dosed at 10 μM (Y: yes))
same,Inhibition of mouse microglial phagocytosis at 10 μM (<70% control),"[1]; 10 μM, BV2",Y (The compound was found to inhibit phagocytosis (response threshold: <70% control) when murine immortalized microglial cells were dosed at 10 μM (Y: yes))
same,Inhibition of human microglial phagocytosis at 10 μM (<70% control),"[6]; 10 μM, HMC3",Y (The compound was found to inhibit phagocytosis (response threshold: <70% control) when human immortalized microglial cells were dosed at 10 μM (Y: yes))
same,Reported on-target biochemical potency,"[2]; target KIT, ref PubMed PMC2746281",200 nM
same,Reported on-target biochemical potency,"[2]; target LYN, ref PubMed PMC2746281",510 nM
same,Reported on-target biochemical potency,"[2]; target PDGFRα, ref PubMed PMC2746281",540 nM
same,Reported on-target biochemical potency,"[2]; target PDGFRβ, ref PubMed PMC2746281",800 nM
same,solubility kinetic,[3],93.9 µM
O=c1ncn2nc(Sc3ccc(F)cc3F)ccc2c1-c1c(Cl)cccc1Cl [Neflamapimod (VX-745)],Stimulation of mouse microglial phagocytosis at 10 μM (>150% control),"[1]; 10 μM, BV2",Y (The compound was found to stimulate phagocytosis (response threshold: >150% control) when murine immortalized microglial cells were dosed at 10 μM (Y: yes))
same,Reported on-target biochemical potency,"[2]; target MAPK11, ref PubMed 24900264",220 nM
same,Reported on-target biochemical potency,"[2]; target MAPK14, ref PubMed 24900264",10 nM
same,solubility kinetic,[3],48.1 µM
C[C@H](N/C(=N\c1cccc2ncccc12)NC#N)c1ccccc1 [A-804598],Inhibition of human microglial phagocytosis at 10 μM (<70% control),"[6]; 10 μM, HMC3",Y (The compound was found to inhibit phagocytosis (response threshold: <70% control) when human immortalized microglial cells were dosed at 10 μM (Y: yes))
same,Reported on-target biochemical potency,"[2]; target P2X7, ref PubMed 18602931, 28716092, 28871219, 29934546",10 nM
same,solubility kinetic,[3],31.1 µM
"O=C(Cn1cc(S(=O)(=O)N2CCCC2)ccc1=O)c1ccc(-c2cccc(C(F)(F)F)c2)cc1 [UNC8367A, reference compound]",Mouse microglial cytotoxicity at 10 μM (<70% control),"[4]; BV2, 10 μM",Y (The compound was found to be cytotoxic (cell count threshold: <70% control) when murine immortalized microglial cells were dosed at 10 μM (Y: yes))
same,1. Cell count (% control),"[4]; BV2, compound 10 uM",56.7 % control
same,2. Nuclear Area (% Control),"[4]; BV2, compound 10 uM",109.8 % Control
same,3. Nuclear DNA Intensity (% control),"[4]; BV2, compound 10 uM",118.7 % control
same,1. Cell count (% control),"[5]; HMC3, compound 10 uM",109.8 % control
same,2. Nuclear Area (% Control),"[5]; HMC3, compound 10 uM",95.2 % Control
same,3. Nuclear DNA Intensity (% control),"[5]; HMC3, compound 10 uM",108.6 % control
same,Stimulation of mouse microglial phagocytosis at 10 μM (>150% control),"[1]; BV2, 10 μM",Y (The compound was found to stimulate phagocytosis (response threshold: >150% control) when murine immortalized microglial cells were dosed at 10 μM (Y: yes))
same,4. Phagocytosis (% control),"[1]; BV2, compound 10 uM, pHrodo-myelin",408.0 % control
same,"phagocytosis in human microglial cells (< 70% control inhibition, > 150% control stimulation)","[6]; HMC3, 10 μM, pHrodo-myelin",stimulatory
same,4. Phagocytosis (% control),"[6]; HMC3, compound 10 uM, pHrodo-myelin",146.9 % control
same,Reported on-target biochemical potency,"[2]; gene target DOCK1, ref PubMed 28467910, 29432733",8400 nM
same,solubility kinetic,[3],6.5 µM
"CCCCNc1ncc2c(-c3ccc(CN4CCN(C)CC4)cc3)cn([C@H]3CC[C@H](O)CC3)c2n1 [UNC2025C, reference compound]",Mouse microglial cytotoxicity at 10 μM (<70% control),"[4]; 10 μM, BV2",Y (The compound was found to be cytotoxic (cell count threshold: <70% control) when murine immortalized microglial cells were dosed at 10 μM (Y: yes))
same,1. Cell count (% control),"[4]; BV2 cells, 10 uM compound",17.3 % control
same,2. Nuclear Area (% Control),"[4]; BV2 cells, 10 uM compound",101.1 % Control
same,3. Nuclear DNA Intensity (% control),"[4]; BV2 cells, 10 uM compound",19.1 % control
same,Human microglial cytotoxicity at 10 μM (<70% control),"[5]; 10 μM, HMC3",Y (The compound was found to be cytotoxic (cell count threshold: <70% control) when human immortalized microglial cells were dosed at 10 μM (Y: yes))
same,1. Cell count (% control),"[5]; HMC3 cells, 10 uM compound",38.6 % control
same,2. Nuclear Area (% Control),"[5]; HMC3 cells, 10 uM compound",85.2 % Control
same,3. Nuclear DNA Intensity (% control),"[5]; HMC3 cells, 10 uM compound",178.5 % control
same,Inhibition of mouse microglial phagocytosis at 10 μM (<70% control),"[1]; 10 μM, BV2",Y (The compound was found to inhibit phagocytosis (response threshold: <70% control) when murine immortalized microglial cells were dosed at 10 μM (Y: yes))
same,"phagocytosis in mouse microglial cells (< 70% control inhibition, > 150% control stimulation)","[1]; BV2, 10 μM, pHrodo-myelin",inhibited
same,4. Phagocytosis (% control),"[1]; BV2 cells, 10 uM compound, 48 hours treatment, pHrodo-myelin final 20 hours",0.168 % control
same,Inhibition of human microglial phagocytosis at 10 μM (<70% control),"[6]; 10 μM, HMC3",Y (The compound was found to inhibit phagocytosis (response threshold: <70% control) when human immortalized microglial cells were dosed at 10 μM (Y: yes))
same,"phagocytosis in human microglial cells (< 70% control inhibition, > 150% control stimulation)","[6]; HMC3, 10 μM, pHrodo-myelin",inhibited
same,4. Phagocytosis (% control),"[6]; HMC3 cells, 10 uM compound, 48 hours treatment, pHrodo-myelin final 20 hours",1.1 % control
same,Reported on-target biochemical potency,"[2]; target MERTK, ref PubMed 25068800, 27649555",0.74 nM
same,solubility kinetic,[3],43.4 µM
Cc1ccc(F)c(NC(=O)Nc2ccc(-c3cccc4[nH]nc(N)c34)cc2)c1 [Linifanib],Mouse microglial cytotoxicity at 10 μM (<70% control),"[4]; BV2, 10 μM",Y (The compound was found to be cytotoxic (cell count threshold: <70% control) when murine immortalized microglial cells were dosed at 10 μM (Y: yes))
same,Human microglial cytotoxicity at 10 μM (<70% control),"[5]; HMC3, 10 μM",Y (The compound was found to be cytotoxic (cell count threshold: <70% control) when human immortalized microglial cells were dosed at 10 μM (Y: yes))
same,Stimulation of mouse microglial phagocytosis at 10 μM (>150% control),"[1]; BV2, 10 μM",Y (The compound was found to stimulate phagocytosis (response threshold: >150% control) when murine immortalized microglial cells were dosed at 10 μM (Y: yes))
same,Inhibition of human microglial phagocytosis at 10 μM (<70% control),"[6]; HMC3, 10 μM",Y (The compound was found to inhibit phagocytosis (response threshold: <70% control) when human immortalized microglial cells were dosed at 10 μM (Y: yes))
same,Reported on-target biochemical potency,"[2]; gene target CYP19A1, ref Probe Miner",5 nM
same,solubility kinetic,[3],0.6 µM
Nc1nc(Nc2ccc3c(c2)CC[C@@H](N2CCCC2)CC3)nn1-c1cc2c(nn1)-c1ccccc1CCC2 [Bemcentinib (BGB324)],Mouse microglial cytotoxicity at 10 μM (<70% control),"[4]; BV2, 10 μM",Y (The compound was found to be cytotoxic (cell count threshold: <70% control) when murine immortalized microglial cells were dosed at 10 μM (Y: yes))
same,Human microglial cytotoxicity at 10 μM (<70% control),"[5]; HMC3, 10 μM",Y (The compound was found to be cytotoxic (cell count threshold: <70% control) when human immortalized microglial cells were dosed at 10 μM (Y: yes))
same,Inhibition of mouse microglial phagocytosis at 10 μM (<70% control),"[1]; BV2, 10 μM",Y (The compound was found to inhibit phagocytosis (response threshold: <70% control) when murine immortalized microglial cells were dosed at 10 μM (Y: yes))
same,Inhibition of human microglial phagocytosis at 10 μM (<70% control),"[6]; HMC3, 10 μM",Y (The compound was found to inhibit phagocytosis (response threshold: <70% control) when human immortalized microglial cells were dosed at 10 μM (Y: yes))
same,Reported on-target biochemical potency,[2],14 nM
same,solubility kinetic,[3],82.9 µM
CN1CCN(CCCN2c3ccccc3Sc3ccc(C(F)(F)F)cc32)CC1 [Trifluoperazine],Mouse microglial cytotoxicity at 10 μM (<70% control),"[4]; 10 μM, BV2",Y (The compound was found to be cytotoxic (cell count threshold: <70% control) when murine immortalized microglial cells were dosed at 10 μM (Y: yes))
same,Inhibition of human microglial phagocytosis at 10 μM (<70% control),"[6]; 10 μM, HMC3",Y (The compound was found to inhibit phagocytosis (response threshold: <70% control) when human immortalized microglial cells were dosed at 10 μM (Y: yes))
same,Reported on-target biochemical potency,[2],5200 nM
same,Reported as cell active (<10 μM),cellular system,Y (key: Published data supports that the compound is active in a cellular system when dosed at 10 μM (Y/N); Published data supports that the compound is active in a cellular system when dosed at 10 μM (Y/N))
